Reference: paper doi:10.1101/471615v1 (biorxiv, 2018)

Assays:
Test in all cases: biochemical
ABL1-non-Phos. = ABL1-non-Phos. (Homo sapiens, UniProt P00519)
LCK = LCK (Homo sapiens, UniProt P06239)
EphA1 = target: T1, EphA1 (Homo sapiens, UniProt P21709)
T1 sequence (P21709 1-976): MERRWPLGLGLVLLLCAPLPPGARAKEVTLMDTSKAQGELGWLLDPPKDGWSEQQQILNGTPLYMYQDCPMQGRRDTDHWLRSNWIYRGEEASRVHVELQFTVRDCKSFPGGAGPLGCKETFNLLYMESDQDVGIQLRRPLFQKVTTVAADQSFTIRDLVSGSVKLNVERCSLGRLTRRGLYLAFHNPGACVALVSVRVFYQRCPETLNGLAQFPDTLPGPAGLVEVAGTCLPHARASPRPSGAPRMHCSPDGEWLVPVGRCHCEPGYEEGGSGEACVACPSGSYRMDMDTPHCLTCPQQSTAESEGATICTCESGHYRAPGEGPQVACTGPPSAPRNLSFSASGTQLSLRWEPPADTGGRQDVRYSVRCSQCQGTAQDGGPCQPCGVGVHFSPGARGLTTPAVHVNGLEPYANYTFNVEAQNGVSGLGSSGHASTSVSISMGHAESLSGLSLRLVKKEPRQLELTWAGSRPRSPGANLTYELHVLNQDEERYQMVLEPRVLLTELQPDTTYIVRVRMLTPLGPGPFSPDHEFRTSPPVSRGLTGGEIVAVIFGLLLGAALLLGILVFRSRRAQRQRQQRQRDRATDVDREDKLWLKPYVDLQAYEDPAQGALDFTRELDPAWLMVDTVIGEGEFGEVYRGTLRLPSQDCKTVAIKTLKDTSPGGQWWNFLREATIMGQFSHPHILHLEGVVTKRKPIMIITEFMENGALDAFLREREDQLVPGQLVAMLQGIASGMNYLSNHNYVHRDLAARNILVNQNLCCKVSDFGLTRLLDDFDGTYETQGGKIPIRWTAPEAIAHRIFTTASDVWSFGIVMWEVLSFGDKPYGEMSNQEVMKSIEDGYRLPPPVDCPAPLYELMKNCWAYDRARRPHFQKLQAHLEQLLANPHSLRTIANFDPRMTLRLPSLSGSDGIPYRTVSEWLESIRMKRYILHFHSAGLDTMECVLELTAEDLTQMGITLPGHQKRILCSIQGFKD

[1] = target: receptor-interacting protein kinase 2, RIPK2 (Homo sapiens, UniProt O43353)
receptor-interacting protein kinase 2, RIPK2, sequence (O43353 whole entry): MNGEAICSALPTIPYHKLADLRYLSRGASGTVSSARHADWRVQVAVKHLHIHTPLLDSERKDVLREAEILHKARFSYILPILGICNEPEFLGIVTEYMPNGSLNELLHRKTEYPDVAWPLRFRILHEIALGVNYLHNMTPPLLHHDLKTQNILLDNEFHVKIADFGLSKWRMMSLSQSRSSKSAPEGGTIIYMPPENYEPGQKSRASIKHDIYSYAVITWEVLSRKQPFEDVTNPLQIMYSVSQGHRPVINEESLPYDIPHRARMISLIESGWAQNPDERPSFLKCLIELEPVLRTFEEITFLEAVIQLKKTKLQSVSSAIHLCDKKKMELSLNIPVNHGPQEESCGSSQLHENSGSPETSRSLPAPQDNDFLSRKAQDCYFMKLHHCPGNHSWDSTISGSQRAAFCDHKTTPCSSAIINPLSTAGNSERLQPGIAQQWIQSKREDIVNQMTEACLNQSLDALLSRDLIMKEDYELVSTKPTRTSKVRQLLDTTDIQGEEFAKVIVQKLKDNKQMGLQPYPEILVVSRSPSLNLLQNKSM

ABL1-Phos. = ABL1-Phos. (Homo sapiens, UniProt P00519)
ABL1-Phos., sequence (P00519 whole entry): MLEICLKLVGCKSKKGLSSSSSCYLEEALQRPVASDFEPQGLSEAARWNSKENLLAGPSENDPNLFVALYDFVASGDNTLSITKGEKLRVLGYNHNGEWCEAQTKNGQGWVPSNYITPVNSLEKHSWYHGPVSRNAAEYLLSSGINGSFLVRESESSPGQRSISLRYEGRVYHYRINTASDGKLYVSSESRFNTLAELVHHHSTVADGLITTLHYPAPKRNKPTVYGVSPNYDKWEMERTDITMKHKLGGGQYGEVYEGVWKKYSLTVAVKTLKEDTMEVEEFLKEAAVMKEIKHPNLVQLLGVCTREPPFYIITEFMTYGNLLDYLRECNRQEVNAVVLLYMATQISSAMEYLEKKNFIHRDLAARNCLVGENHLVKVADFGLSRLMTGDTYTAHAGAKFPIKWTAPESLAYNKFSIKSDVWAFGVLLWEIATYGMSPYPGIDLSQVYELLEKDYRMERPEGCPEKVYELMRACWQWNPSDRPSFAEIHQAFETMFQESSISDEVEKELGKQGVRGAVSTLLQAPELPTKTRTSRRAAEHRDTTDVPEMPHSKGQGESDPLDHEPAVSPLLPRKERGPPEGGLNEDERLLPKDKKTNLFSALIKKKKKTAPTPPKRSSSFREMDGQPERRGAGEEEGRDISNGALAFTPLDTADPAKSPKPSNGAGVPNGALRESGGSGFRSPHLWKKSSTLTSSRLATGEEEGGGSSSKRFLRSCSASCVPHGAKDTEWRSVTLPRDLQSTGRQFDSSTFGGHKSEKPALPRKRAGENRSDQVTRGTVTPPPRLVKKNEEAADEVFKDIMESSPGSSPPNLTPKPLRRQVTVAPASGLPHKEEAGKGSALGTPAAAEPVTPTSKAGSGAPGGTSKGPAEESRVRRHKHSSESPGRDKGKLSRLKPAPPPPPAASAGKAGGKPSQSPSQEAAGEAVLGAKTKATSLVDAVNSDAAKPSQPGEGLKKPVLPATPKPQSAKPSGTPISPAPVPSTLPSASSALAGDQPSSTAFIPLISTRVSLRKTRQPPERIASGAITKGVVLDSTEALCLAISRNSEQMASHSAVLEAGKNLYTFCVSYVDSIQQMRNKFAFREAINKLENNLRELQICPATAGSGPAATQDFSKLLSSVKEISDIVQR

EphA8 = target: T2, EphA8 (Homo sapiens, UniProt P29322)
T2 sequence (P29322 1-1005): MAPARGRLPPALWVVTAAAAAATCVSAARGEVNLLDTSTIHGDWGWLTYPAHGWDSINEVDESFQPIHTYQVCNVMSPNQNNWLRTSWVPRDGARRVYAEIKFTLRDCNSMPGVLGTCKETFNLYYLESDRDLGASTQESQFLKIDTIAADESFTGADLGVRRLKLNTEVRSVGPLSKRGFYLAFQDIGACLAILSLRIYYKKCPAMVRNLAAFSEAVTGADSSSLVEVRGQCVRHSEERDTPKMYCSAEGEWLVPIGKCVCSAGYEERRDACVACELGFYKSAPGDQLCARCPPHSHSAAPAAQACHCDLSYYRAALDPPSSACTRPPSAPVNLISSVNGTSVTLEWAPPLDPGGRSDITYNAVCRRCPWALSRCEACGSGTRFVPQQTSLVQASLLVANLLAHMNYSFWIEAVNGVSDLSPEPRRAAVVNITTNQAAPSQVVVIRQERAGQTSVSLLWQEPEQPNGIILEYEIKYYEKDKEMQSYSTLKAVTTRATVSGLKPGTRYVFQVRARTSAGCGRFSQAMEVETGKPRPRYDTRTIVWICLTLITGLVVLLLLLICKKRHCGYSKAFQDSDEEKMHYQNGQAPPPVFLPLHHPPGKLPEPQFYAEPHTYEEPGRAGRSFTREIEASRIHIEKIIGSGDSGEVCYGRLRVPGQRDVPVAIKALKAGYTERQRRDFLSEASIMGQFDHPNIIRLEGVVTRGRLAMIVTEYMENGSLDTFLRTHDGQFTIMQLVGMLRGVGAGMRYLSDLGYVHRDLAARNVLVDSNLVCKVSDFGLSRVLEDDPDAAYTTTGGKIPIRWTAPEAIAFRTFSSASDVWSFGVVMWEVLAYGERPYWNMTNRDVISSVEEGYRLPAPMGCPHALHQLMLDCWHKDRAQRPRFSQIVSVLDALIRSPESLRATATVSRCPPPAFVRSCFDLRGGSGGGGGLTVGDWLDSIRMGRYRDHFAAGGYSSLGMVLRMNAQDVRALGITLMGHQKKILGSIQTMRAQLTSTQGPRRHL

Measured: Kd

LCK, sequence (P06239 whole entry): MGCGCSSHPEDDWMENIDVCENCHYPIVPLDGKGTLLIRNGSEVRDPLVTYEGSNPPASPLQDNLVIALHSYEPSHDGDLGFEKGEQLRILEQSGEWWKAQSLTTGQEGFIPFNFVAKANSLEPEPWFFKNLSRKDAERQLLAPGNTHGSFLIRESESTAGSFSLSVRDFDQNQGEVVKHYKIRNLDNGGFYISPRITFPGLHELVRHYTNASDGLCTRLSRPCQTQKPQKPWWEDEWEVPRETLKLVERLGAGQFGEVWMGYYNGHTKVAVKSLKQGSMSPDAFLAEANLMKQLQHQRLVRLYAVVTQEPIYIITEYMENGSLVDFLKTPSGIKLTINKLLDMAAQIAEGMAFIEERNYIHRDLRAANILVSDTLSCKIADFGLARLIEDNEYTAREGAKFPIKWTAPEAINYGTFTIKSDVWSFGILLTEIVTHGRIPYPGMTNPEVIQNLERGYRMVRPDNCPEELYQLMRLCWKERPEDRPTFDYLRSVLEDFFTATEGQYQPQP
ABL1-non-Phos., sequence (P00519 whole entry): as the sequence (P00519 whole entry) above

COc1cc(N(C)c2ccnc3ccc(C(F)(F)F)cc23)cc(OC)c1OC [compound 21, negative control (21)]
> 10 µM: all assays above
